The assay relates to T1, A. awamori EM66 exochitinase.
T1 construct: native secreted enzyme from culture supernatant of honey isolate, partially purified by ethanol fractionation, free (not immobilised)
The assay is described as follows: p-nitrophenol release at […] nm, Lineweaver-Burk plot. Type of assay: biochemical, Aspergillus awamori. The following applies: free enzyme, partially purified; acetate buffer pH 5.0; 30 °C; apparent Km.

Regarding `CC(=O)N[C@H]1[C@H](Oc2ccc([N+](=O)[O-])cc2)O[C@H](CO)[C@@H](O)[C@@H]1O` [PNP-β-GlcNAc, p-nitrophenyl-β-D-N-acetyl glucoseaminide], the Km is reported as 0.33 mg/mL.
